The subject of this experiment is P388. The experiment is described as follows: Cytotoxicity against mouse P388 cells. In kind it is functional. The conditions noted are these: read-out: ED50 (the source's name).

Converted amounts (≈) assume the structure as drawn. Numbered stars: 1 amine (or outer) side, 2 acyl side, 3 side chain; on linkers, the order of the positions; unused ones are H or OH. Square brackets hold non-standard residues; d marks the D form. Peptide text beside a SMILES is read from it. X1 = CC[C@H](C)[C@H](OC(=O)[C@@H](C)[C@@H](CC)N[*:1])C(=O)[*:2]; X2 = C[C@H](N[*:1])C(=O)C(C)(C)C(=O)[*:2]; NMeY = CN[C@@H](Cc1ccc(O)cc1)C(=O)O; NMeF = CN[C@@H](Cc1ccccc1)C(=O)O; NMeL = CN[C@@H](CC(C)C)C(=O)O; NMeV = CN[C@H](C(=O)O)C(C)C; NMeA = CN[C@@H](C)C(=O)O

In the case of `CC[C@H](C)[C@@H]1OC(=O)[C@@H](C)[C@@H](CC)NC(=O)[C@H](C)NC(=O)C(C)(C)C(=O)[C@H](C)NC(=O)[C@H](Cc2ccc(OC)cc2)N(C)C(=O)[C@H](C(C)C)N(C)C(=O)CNC(=O)[C@H](CC(C)C)N(C)C(=O)CNC1=O` [DOLASTATIN 11] (cyclo(A[X1]G[NMeL]G[NMeV][NMeY](Me)[X2])), the EC50 was determined as 0.0027 µg/mL (≈ 0.00274 µM).

Take `CC[C@H](C)[C@@H]1OC(=O)[C@@H](C)[C@@H](CC)NC(=O)[C@H](C)N(C)C(=O)C(C)(C)C(=O)[C@H](C)NC(=O)[C@H](Cc2ccccc2)N(C)C(=O)[C@H](C(C)C)N(C)C(=O)CNC(=O)[C@H](CC(C)C)N(C)C(=O)CNC1=O` [DOLASTATIN 12] (cyclo(G[NMeL]G[NMeV][NMeF][X2][NMeA][X1])): the EC50 was determined as 0.075 µg/mL (≈ 0.0774 µM).

The record behind these values is ChEMBL document CHEMBL1147353, “The Isolation of Majusculamide C from the Sponge Ptilocaulis trachys Collected in Enewetak and Determination of the Absolute Configuration of the 2-Methyl-3-aminopentanoic Acid Residue” (1993).
